Data published in publication PMC4659573 (PLoS ONE, 2015).
pIC50: −log10 of the molar value. Each block holds one compound with its values, some of them ahead of it.

Tests used:
[1] = system: primary CLL cells; assay: CLL cell apoptosis, Annexin V staining within the CD19+ subset, flow cytometry; assay type: cell-based, human; conditions: for CLL cell apoptosis with selective CDK inhibitors: alone or in combination, data not shown
From the text: Following approval by the Committee for Protection of Human Subjects at Dartmouth-Hitchcock Medical Center, the Institutional Review Board at Oregon Health and Science University and written consent of patients, peripheral blood was obtained from patients with B-CLL at the hematology clinics at the above institutions (N = 52). The mean time from CLL diagnosis to entry of study was 5 years; 39 patients (75%) were previously untreated. Isolation of peripheral blood mononuclear cells (PMBCs) was performed using standard Ficoll-Hypaque technique (Amersham, Piscataway, NJ). CLL samples had more than 90% CD5^+/CD19^+ cells, as determined by flow cytometry. CLL cells were cultured in RMPI-1640 medium supplemented with 15% fetal bovine serum, 100 U/mL penicillin, 100 μg/mL streptomycin, 2 mM L-glutamine, 25 mM HEPES, 100 μM non-essential amino acids and 1 mM sodium pyruvate (Lonza, Walkersville, MD). 10 CLL samples with 17p deletion were obtained from the CLL Center at Dana-Farber Cancer Institute. All experiments were performed with freshly isolated cells except the viability assays involving the latter, which were performed with viably frozen cells.
CLL cell apoptosis was measured in duplicates as previously described using the ApoScreen Annexin V Apoptosis Kit. Briefly, cells were resuspended in 150 μl of Annexin V binding buffer containing 1 μl of Annexin V-PE, 1 μl of 7-aminoactinomycin D (7-AAD) and 1 μl of CD19-mAbs (Southern Biotech, Birmingham, AL) followed by flow cytometry on a MACSQuant flow cytometer (Miltenyi Biotec, San Diego, CA). Flow cytometry analysis was performed using FlowJo software (Tree Star, Ashland, OR). P1446A was provided by Piramal Healthcare Ltd. (Mumbai, India). JNK Inhibitor VIII, SP600125, SB203580, ABT-737 and PD0332991 were obtained from Selleck Chemicals (Houston, TX) and CVT-313—from Santa Cruz Biotechnology (Dallas, TX).
Here and subsequently, apoptosis was determined by Annexin V staining within the CD19^+ subset of cells. Horizontal lines represent the mean. […] IC50 value was determined for CLL samples with mutated (N = 13) and unmutated IGHV (N = 10). […] Cytogenetics markers were determined by fluorescent in situ hybridization [no marker, 11q, trisomy 12, 13q, 17p]. Horizontal lines represent the mean. […] Since we noted a significant variation in baseline apoptosis between patient samples, normalization to the time-matched untreated controls was performed to more clearly reflect the drug-induced apoptosis. *- p<0.05 compared to untreated control.

[2] = system: relapsed/refractory CLL; conditions: cited from earlier work
[3] = system: kinases (Kinase 400-Profiler panel); assay: kinase selectivity profiling (Kinase 400-Profiler, ProQinase); assay type: biochemical; conditions: at a drug concentration of 10 μM or less
Description: (§1) Supplementary file pone.0143685.s001.pptx: S1 Fig Determination of selectivity of P1446A-05 was established using biochemical kinase profiling (Kinase 400-Profiler, ProQinase, Freiburg, Germany). IC50 values were determined for the 37 kinases whose activity was inhibited by ≥60% at a drug concentration of 10 μM or less (as shown). […] (PPTX) Click here for additional data file.

[4] = molecular target: T1, Glycogen synthase 3ß (GSK3ß) (Homo sapiens, UniProt P49841); assay: biochemical kinase profiling (S1 Fig)
T1 construct: purchased ProQinase, Freiburg, Germany
T1 sequence (P49841 whole entry): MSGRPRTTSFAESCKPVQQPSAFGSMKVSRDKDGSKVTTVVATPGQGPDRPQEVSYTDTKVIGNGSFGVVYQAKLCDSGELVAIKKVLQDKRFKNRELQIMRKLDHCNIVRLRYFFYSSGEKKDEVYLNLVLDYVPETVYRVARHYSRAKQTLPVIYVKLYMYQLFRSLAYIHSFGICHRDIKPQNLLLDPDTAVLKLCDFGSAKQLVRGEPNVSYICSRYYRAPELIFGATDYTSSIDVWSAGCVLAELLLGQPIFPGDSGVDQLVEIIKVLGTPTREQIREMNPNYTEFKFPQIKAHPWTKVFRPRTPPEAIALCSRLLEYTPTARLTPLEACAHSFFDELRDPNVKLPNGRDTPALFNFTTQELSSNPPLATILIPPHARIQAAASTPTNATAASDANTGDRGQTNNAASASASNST
Description: as §1

[5] = system: PIM kinase isoforms; assay: biochemical kinase profiling (S1 Fig)
Description: as §1

[6] = system: HCT-116; parameters: method as in Piramal Healthcare Ltd., proprietary information; 24; conditions: HCT-116 xenograft mouse model; ref Piramal Healthcare Ltd., proprietary information; 24; cited from earlier work
[7] = system: H-460; parameters: method as in Piramal Healthcare Ltd., proprietary information; 24; conditions: H-460 xenograft mouse model; ref Piramal Healthcare Ltd., proprietary information; 24; cited from earlier work
[8] = molecular target: T2, CDK2 (Homo sapiens, UniProt P24941); assay: biochemical kinase profiling (Kinase 400-Profiler, ProQinase); conditions: S1 Fig
T2 construct: purchased ProQinase, Freiburg, Germany
Description: as §1

[9] = molecular target: T3, CDK5 (Homo sapiens, UniProt Q00535); assay: as above; conditions: S1 Fig
T3 construct: purchased ProQinase, Freiburg, Germany
T3 sequence (Q00535 whole entry): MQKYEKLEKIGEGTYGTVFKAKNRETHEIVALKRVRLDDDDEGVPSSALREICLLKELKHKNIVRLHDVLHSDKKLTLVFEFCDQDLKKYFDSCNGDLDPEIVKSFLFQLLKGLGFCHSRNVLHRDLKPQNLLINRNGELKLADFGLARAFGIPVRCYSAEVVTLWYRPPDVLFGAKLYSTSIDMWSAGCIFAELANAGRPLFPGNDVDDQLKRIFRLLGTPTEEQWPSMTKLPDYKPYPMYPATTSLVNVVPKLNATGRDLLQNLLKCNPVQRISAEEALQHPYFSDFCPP
T3 sequence (Q15078 99-307 partner limits assumed): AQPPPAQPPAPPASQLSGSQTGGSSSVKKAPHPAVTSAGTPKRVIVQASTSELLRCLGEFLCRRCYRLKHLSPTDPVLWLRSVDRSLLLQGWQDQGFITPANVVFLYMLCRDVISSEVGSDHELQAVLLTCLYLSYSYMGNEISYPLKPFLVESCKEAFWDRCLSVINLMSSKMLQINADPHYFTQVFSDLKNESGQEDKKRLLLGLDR
Description: as §1

[10] = molecular target: T4, CDK1 (Homo sapiens, UniProt P06493); assay: as above; conditions: S1 Fig
T4 construct: purchased ProQinase, Freiburg, Germany
T4 sequence (P06493 whole entry): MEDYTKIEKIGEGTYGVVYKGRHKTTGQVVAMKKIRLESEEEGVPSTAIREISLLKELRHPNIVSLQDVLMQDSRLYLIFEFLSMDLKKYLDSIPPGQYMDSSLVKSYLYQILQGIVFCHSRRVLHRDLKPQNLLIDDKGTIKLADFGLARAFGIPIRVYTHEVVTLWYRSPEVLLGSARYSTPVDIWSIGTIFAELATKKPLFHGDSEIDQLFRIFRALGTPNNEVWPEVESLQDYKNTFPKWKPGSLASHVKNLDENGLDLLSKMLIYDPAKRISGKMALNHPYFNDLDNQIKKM
T4 sequence (P14635 whole entry partner): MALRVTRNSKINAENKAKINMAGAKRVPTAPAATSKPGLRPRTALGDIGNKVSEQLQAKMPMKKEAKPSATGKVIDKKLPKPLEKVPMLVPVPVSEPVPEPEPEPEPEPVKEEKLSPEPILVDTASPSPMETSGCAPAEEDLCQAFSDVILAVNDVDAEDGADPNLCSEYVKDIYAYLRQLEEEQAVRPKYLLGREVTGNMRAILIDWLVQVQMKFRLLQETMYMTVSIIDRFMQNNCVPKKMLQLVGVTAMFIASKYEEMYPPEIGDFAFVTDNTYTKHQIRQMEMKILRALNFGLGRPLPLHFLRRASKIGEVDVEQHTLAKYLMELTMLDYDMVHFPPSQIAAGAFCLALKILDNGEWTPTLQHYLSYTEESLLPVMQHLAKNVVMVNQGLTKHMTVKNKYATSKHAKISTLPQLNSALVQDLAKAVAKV
Description: as §1

[11] = molecular target: T5, CDK8 (Homo sapiens, UniProt P49336); assay: as above; conditions: S1 Fig
T5 construct: purchased ProQinase, Freiburg, Germany
T5 sequence (P49336 whole entry): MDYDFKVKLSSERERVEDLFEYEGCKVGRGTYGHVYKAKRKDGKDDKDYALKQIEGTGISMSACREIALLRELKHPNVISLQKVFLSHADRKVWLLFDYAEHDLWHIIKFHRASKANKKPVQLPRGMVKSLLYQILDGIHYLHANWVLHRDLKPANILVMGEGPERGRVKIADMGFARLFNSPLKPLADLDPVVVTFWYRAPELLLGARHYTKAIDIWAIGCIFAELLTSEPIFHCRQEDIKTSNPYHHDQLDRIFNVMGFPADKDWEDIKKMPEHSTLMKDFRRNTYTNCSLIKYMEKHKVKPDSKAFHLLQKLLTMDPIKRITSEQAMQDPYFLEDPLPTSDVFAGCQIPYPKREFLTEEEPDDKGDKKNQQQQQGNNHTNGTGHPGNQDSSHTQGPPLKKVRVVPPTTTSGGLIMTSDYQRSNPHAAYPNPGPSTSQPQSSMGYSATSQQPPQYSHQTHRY
T5 sequence (P24863 whole entry partner): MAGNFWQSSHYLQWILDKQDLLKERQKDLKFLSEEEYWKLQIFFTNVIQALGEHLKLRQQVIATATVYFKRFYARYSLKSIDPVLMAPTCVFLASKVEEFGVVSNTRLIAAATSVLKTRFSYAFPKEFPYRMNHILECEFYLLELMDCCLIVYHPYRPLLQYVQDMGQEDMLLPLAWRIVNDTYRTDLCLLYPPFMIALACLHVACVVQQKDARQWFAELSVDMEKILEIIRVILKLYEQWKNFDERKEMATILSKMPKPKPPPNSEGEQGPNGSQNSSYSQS
Description: as §1

[12] = molecular target: T6, CDK4 (Homo sapiens, UniProt P11802); assay: as above; conditions: S1 Fig
T6 construct: purchased ProQinase, Freiburg, Germany
T6 sequence (P11802 whole entry): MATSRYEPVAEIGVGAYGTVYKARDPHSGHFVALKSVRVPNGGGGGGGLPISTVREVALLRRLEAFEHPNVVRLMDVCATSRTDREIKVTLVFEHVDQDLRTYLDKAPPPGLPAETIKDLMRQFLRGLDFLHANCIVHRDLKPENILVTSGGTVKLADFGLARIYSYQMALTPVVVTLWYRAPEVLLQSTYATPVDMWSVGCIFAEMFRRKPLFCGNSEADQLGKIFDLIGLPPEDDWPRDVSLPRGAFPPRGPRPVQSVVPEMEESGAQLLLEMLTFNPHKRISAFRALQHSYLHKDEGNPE
T6 sequence (P24385 whole entry partner): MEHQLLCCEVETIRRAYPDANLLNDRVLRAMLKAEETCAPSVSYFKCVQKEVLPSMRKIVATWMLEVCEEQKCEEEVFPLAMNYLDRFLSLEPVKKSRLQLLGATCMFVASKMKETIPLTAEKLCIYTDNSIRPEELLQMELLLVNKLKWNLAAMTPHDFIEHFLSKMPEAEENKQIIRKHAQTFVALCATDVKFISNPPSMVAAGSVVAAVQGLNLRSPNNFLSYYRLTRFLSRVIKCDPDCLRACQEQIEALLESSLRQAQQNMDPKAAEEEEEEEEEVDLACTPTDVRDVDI
Description: as §1

[13] = molecular target: T7, CDK6 (Homo sapiens, UniProt Q00534); assay: as above; conditions: S1 Fig
T7 construct: purchased ProQinase, Freiburg, Germany
T7 sequence (Q00534 whole entry): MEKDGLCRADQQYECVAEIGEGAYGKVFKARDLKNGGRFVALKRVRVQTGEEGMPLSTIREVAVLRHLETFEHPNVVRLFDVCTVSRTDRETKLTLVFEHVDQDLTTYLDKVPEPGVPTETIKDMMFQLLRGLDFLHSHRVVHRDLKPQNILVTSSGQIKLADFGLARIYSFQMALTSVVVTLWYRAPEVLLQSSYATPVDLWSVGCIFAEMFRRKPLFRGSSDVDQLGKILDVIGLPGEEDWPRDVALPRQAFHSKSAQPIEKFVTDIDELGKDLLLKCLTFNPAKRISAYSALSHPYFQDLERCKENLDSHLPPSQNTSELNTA
T7 sequence (P24385 whole entry partner): as the sequence (P24385 whole entry partner) above
Description: as §1

Structure (SMILES): COc1ccc(CNc2nc(N(CCO)CCO)nc3c2ncn3C(C)C)cc1 [CVT-313, reference compound]
CLL cell apoptosis with selective CDK inhibitors [1]: did not lead to CLL cell apoptosis

Structure (SMILES): CCc1cnn2c(NCc3ccc[n+]([O-])c3)cc(N3CCCC[C@H]3CCO)nc12 [Dinaciclib]
overall response rate ([2]; patients with relapsed/refractory CLL): 54%

number of kinases whose activity was inhibited by ≥60% [3]: 37
concentration range of inhibition in vitro [4]: nanomolar concentration range
concentration range of inhibition in vitro [5]: nanomolar concentration range
pIC50 [8]: 6.74
pIC50 [9]: 6.68
pIC50 [10]: 7.60
pIC50 [11]: 7.92
pIC50 [12]: 7.05
pIC50 [13]: 6.68
Structure (SMILES): CN1CC[C@@H](c2c(O)cc(O)c3c(=O)cc(-c4ccc(C(F)(F)F)cc4Cl)oc23)[C@@H]1CO [P1446A]
cells that underwent apoptosis ([1]; 0.5 μM, 24 hour incubation, N = 10, vehicle control 29.2±2.0%): 47.2±3.5%
apoptosis of CLL cells ([1]; 1.5 μM, 24 hour incubation, N = 10): 83.3±3.3%
tumor growth in xenograft [6]: restricted growth
tumor growth in xenograft [7]: restricted growth

Structure (SMILES): CC(=O)c1c(C)c2cnc(Nc3ccc(N4CCNCC4)cn3)nc2n(C2CCCC2)c1=O [PD0332991, reference compound]
CLL cell apoptosis with selective CDK inhibitors [1]: did not lead to CLL cell apoptosis

Structure (SMILES): CN1CC[C@H](c2c(O)cc(O)c3c(=O)cc(-c4ccccc4Cl)oc23)[C@H](O)C1 [flavopiridol]
patients with responses [2]: 53%
